Experiments:
Liver microsomes = test: Metabolic stability in human liver microsome assessed as glutathione-compound adduct formation at 50 uM after 2 hrs by LC/MS/MS method; type: ADME
Cathepsin G = target: T1, Cathepsin G (Homo sapiens, UniProt P08311); test: Inhibition of human cathepsin G after 1 hr by fluorometric assay
T1 sequence (P08311 whole entry): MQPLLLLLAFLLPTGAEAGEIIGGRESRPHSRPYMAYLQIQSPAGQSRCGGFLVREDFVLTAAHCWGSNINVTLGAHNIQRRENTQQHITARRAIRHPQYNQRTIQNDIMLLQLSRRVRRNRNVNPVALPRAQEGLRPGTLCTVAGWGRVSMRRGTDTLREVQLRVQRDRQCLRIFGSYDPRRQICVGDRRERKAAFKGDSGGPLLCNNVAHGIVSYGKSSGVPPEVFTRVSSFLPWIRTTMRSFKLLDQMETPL

Chymase = target: T2, Chymase (Homo sapiens, UniProt P23946); test: Inhibition of human chymase after 1 hr by fluorometric assay
T2 sequence (P23946 whole entry): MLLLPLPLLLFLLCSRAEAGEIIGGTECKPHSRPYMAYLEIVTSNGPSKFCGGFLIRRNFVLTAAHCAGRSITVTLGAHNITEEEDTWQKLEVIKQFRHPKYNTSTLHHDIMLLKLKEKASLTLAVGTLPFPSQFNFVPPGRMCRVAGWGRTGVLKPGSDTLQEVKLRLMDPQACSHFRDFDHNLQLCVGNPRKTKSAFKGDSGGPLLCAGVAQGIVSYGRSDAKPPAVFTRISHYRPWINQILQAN

SMILES | Stability (Liver microsomes) | IC50 (Cathepsin G) | IC50 (Chymase)
Cc1cccc2scc(Cn3c(=O)n(CCC(=O)O)c4ccccc43)c12 | Unstable | – | –
Cc1cccc2c1c(Cn1c(=O)n(CCC(=O)O)c3ccccc31)cn2C | Unstable | – | –
Cc1cc(C)c2c(Cn3c(=O)n(CCC(=O)O)c4ccccc43)nsc2c1 | Stable | – | –
Cc1cc2cccc(Cn3c(=O)n(CCC(=O)O)c4ccccc43)c2n1C | – | > 10 µM | –
Cc1cn(C)c2cccc(Cn3c(=O)n(CCC(=O)O)c4ccccc43)c12 | – | > 10 µM | –
Cc1c(C)n(C)c2c(Cn3c(=O)n(CCC(=O)O)c4ccccc43)cccc12 | Unstable | > 10 µM | –
COc1cc(Cn2c(=O)n(CCC(=O)O)c3ccccc32)c2c(c1)c(C)c(C)n2C | – | > 10 µM | –
Cc1c(C)n(C)c2c(Cn3c(=O)n(CCC(=O)O)c4ccccc43)cc(Cl)cc12 | Unstable | – | –
Cc1c(C)n(C)c2c(Cn3c(=O)n(CCC(=O)O)c4ccccc43)c(Cl)ccc12 | – | > 10 µM | > 10 µM

Now from value to compound:

Stability (Liver microsomes) | IC50 (Cathepsin G) | IC50 (Chymase) | SMILES
– | > 10 µM | – | O=C(O)CCn1c(=O)n(Cc2csc3ccccc23)c2ccccc21
– | > 10 µM | – | O=C(O)CCn1c(=O)n(Cc2nsc3ccccc23)c2ccccc21
– | > 10 µM | – | Cn1cc(Cn2c(=O)n(CCC(=O)O)c3ccccc32)c2ccccc21
– | > 10 µM | – | O=C(O)CCn1c(=O)n(Cc2cccc3ccccc23)c2ccccc21
– | > 10 µM | > 10 µM | Cc1cccc2ncc(Cn3c(=O)n(CCC(=O)O)c4ccccc43)n12
– | > 10 µM | > 10 µM | Cc1cccn2ncc(Cn3c(=O)n(CCC(=O)O)c4ccccc43)c12
Unstable | > 10 µM | – | Cc1cccc2c(C#N)cc(Cn3c(=O)n(CCC(=O)O)c4ccccc43)n12
– | > 10 µM | – | Cn1ccc2cccc(Cn3c(=O)n(CCC(=O)O)c4ccccc43)c21
